From ChEMBL document CHEMBL4680286, “Design, synthesis and antibacterial evaluation of novel oxazolidinone derivatives nitrogen-containing fused heterocyclic moiety” (2021) come the findings set out here.

≈ marks a conversion by molar mass, not a printed value.

Type in all cases: functional
In assay [1] the test system is Staphylococcus aureus. Briefly: Antibacterial activity against Staphylococcus aureus ATCC 29213.
Assay [2] has as its system Staphylococcus aureus. Briefly: Antibacterial activity against methicillin-resistant Staphylococcus aureus.
Assay [3] concerns Staphylococcus aureus. Kind of assay: Antibacterial activity against methicillin-sensitive Staphylococcus aureus.
Assay [4] has as its system Enterococcus faecalis. Briefly: Antibacterial activity against linezolid-resistant Enterococcus faecalis.
The test system of assay [5] is Enterococcus faecium. Kind of assay: Antibacterial activity against vancomycin-resistant Enterococcus faecium.
The test system of assay [6] is Staphylococcus aureus. Briefly: Antibacterial activity against hospital acquired methicillin-resistant Staphylococcus aureus clinical isolates.
Assay [7] relates to Staphylococcus aureus. Briefly: Antibacterial activity against hospital acquired methicillin-sensitive Staphylococcus aureus clinical isolates.
For assay [8], the system named is Enterococcus faecium. Briefly: Antibacterial activity against hospital acquired vancomycin-resistant Enterococcus faecium clinical isolates.
In assay [9] the test system is Enterococcus faecalis. Briefly: Antibacterial activity against hospital acquired linezolid-resistant Enterococcus faecalis clinical isolates.
In the next assay the test system is Streptococcus. Briefly: Antibacterial activity against Streptococcus.
The subject of a further assay is Staphylococcus. Kind of assay: Antibacterial activity against Staphylococcus.
The subject of a further assay is Enterococcus. Briefly: Antibacterial activity against Enterococcus.

For the compound `CC(=O)NC[C@H]1CN(c2ccc(-c3ccc(-c4cc5n(n4)CCNC5)cc3)c(F)c2)C(=O)O1`, the MIC (as a rule, the lowest concentration that inhibits growth of the organism) in the assay on Staphylococcus aureus [1] was determined as 2 µg/mL (≈ 4.45 µM); against Staphylococcus aureus [2], 2 µg/mL (≈ 4.45 µM); with Staphylococcus aureus [3], 2 µg/mL (≈ 4.45 µM); in the assay with Enterococcus faecalis [4], 2 µg/mL (≈ 4.45 µM); in the assay on Enterococcus faecium [5], 0.5 µg/mL (≈ 1.11 µM).
With `CC(=O)NC[C@H]1CN(c2ccc(-c3ccc(-c4nc5n(n4)CCN(C)C5)cc3)c(F)c2)C(=O)O1`, the MIC in the assay on Staphylococcus aureus [1] is 1 µg/mL (≈ 2.15 µM); with Staphylococcus aureus [2], 1 µg/mL (≈ 2.15 µM); in the assay with Staphylococcus aureus [3], 1 µg/mL (≈ 2.15 µM); in the assay with Enterococcus faecalis [4], 2 µg/mL (≈ 4.31 µM); against Enterococcus faecium [5], 1 µg/mL (≈ 2.15 µM).
As for `CC(=O)NC[C@H]1CN(c2ccc(-c3ccc(-c4nc5cnccn5n4)cc3)c(F)c2)C(=O)O1`, the MIC against Staphylococcus aureus [6], in the assay with Staphylococcus aureus [1], with Staphylococcus aureus [2], against Staphylococcus aureus [3], against Enterococcus faecalis [4] and in the assay on Enterococcus faecium [5] was 0.5 µg/mL (≈ 1.12 µM) in each case. Also, the MIC with Staphylococcus aureus [7], in the assay on Enterococcus faecium [8] and in the assay on Enterococcus faecalis [9] was 0.5 µg/mL (≈ 1.12 µM) each time.
For the compound `CC(=O)NC[C@H]1CN(c2ccc(-c3ccc(-c4nnc5cnccn45)cc3)c(F)c2)C(=O)O1`, the MIC in the assay with Staphylococcus aureus [1], against Staphylococcus aureus [2], against Staphylococcus aureus [3], against Enterococcus faecalis [4] and against Enterococcus faecium [5] was 1 µg/mL (≈ 2.24 µM) throughout.
With `CC(=O)NC[C@H]1CN(c2ccc(-c3ccc(-c4nc5ccccn5n4)cc3)c(F)c2)C(=O)O1`, the MIC against Staphylococcus aureus [1] came to 2 µg/mL (≈ 4.49 µM); against Staphylococcus aureus [2], 1 µg/mL (≈ 2.24 µM); with Staphylococcus aureus [3], 2 µg/mL (≈ 4.49 µM); against Enterococcus faecalis [4], 1 µg/mL (≈ 2.24 µM); against Enterococcus faecium [5], 0.5 µg/mL (≈ 1.12 µM).
Regarding `CC(=O)NC[C@H]1CN(c2ccc(-c3ccc(-c4nc5n(n4)CCNC5)cc3)c(F)c2)C(=O)O1`, the MIC was found to be 2 µg/mL (≈ 4.44 µM) in the assay with Staphylococcus aureus [1]; 2 µg/mL (≈ 4.44 µM) against Staphylococcus aureus [2]; 1 µg/mL (≈ 2.22 µM) against Staphylococcus aureus [3]; 1 µg/mL (≈ 2.22 µM) against Enterococcus faecalis [4]; 1 µg/mL (≈ 2.22 µM) against Enterococcus faecium [5].
`CC(=O)NC[C@H]1CN(c2ccc(-c3ccc(-c4nnc5ccccn45)cc3)c(F)c2)C(=O)O1`: the MIC came out at 2 µg/mL (≈ 4.49 µM) with Staphylococcus aureus [1]; 2 µg/mL (≈ 4.49 µM) against Staphylococcus aureus [2]; 1 µg/mL (≈ 2.24 µM) against Staphylococcus aureus [3]; 1 µg/mL (≈ 2.24 µM) in the assay on Enterococcus faecalis [4]; 2 µg/mL (≈ 4.49 µM) against Enterococcus faecium [5].
For the compound `CC(=O)NC[C@H]1CN(c2ccc(-c3ccc(-c4cc5n(n4)CCN(C)C5)cc3)c(F)c2)C(=O)O1`, the MIC in the assay on Staphylococcus aureus [1] is 1 µg/mL (≈ 2.16 µM); in the assay with Staphylococcus aureus [2], 1 µg/mL (≈ 2.16 µM); in the assay with Staphylococcus aureus [3], 1 µg/mL (≈ 2.16 µM); against Enterococcus faecalis [4] it was 1 µg/mL (≈ 2.16 µM); in the assay on Enterococcus faecium [5], 0.5 µg/mL (≈ 1.08 µM).
As for `CC(=O)NC[C@H]1CN(c2ccc(N3CCOCC3)c(F)c2)C(=O)O1` [LINEZOLID], the MIC against Staphylococcus aureus [6] was 1 µg/mL (≈ 2.96 µM); in the assay on Staphylococcus aureus [1], 1 µg/mL (≈ 2.96 µM); in the assay with Staphylococcus aureus [2], 1 µg/mL (≈ 2.96 µM); against Staphylococcus aureus [3], 1 µg/mL (≈ 2.96 µM); in the assay on Enterococcus faecalis [4] it was > 16 µg/mL; in the assay with Enterococcus faecium [5], 2 µg/mL (≈ 5.93 µM). Besides, the results for the MIC with Staphylococcus aureus [7], against Enterococcus faecium [8] and in the assay on Enterococcus faecalis [9] were 1 µg/mL (≈ 2.96 µM), 1 µg/mL (≈ 2.96 µM) and > 16 µg/mL, respectively.
As for `CC(=O)NC[C@H]1CN(c2ccc(-c3ccc(CNCc4cnn[nH]4)cc3)c(F)c2)C(=O)O1` [RADEZOLID], the MIC was determined as 0.125 µg/mL (≈ 0.285 µM) against Streptococcus; 0.125 µg/mL (≈ 0.285 µM) in the assay with Staphylococcus; 0.125 µg/mL (≈ 0.285 µM) with Enterococcus; 0.5 µg/mL (≈ 1.14 µM) against Staphylococcus aureus [1]; 0.5 µg/mL (≈ 1.14 µM) in the assay on Staphylococcus aureus [2]; 0.5 µg/mL (≈ 1.14 µM) with Staphylococcus aureus [3]. In addition, the MIC against Enterococcus faecalis [4] and in the assay with Enterococcus faecium [5] was 0.5 µg/mL (≈ 1.14 µM) in each case.
